The subject of the test is AP-1 induced transcriptional activity. Description: Cellular Transrepressional Assay (AP-1 luciferase reporter, PMA-activated A549 cells). As to conditions: for Emax: A549, 7 h, read-out: AP-1 Max % inh (Cellular Transrepression Assay); for Emax / AP-1 Max % inh (Cellular Transrepression Assay): maximum inhibition. Type of test: cell-based. The procedure, abridged: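 Compounds tested from 0.1 nM to 40 μM during a 7 h PMA (10 ng/ml) stimulation of A549 cells stably transfected with 7× AP-1 sites driving luciferase. Repression expressed as % reduction of PMA-induced luminescence; EC50 by curve fitting.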
In general terms: Reporter assays use an easily measured gene product as a stand-in for the process of interest.

[1] abbreviates: Homo sapiens, Cellular Transrepression Assay.
Setting [2] is: Homo sapiens, A549, Cellular Transrepression Assay.

Here are results for 47 compounds from patent US8034940B2, “Modulators of glucocorticoid receptor, AP-1, and/or NF-κB activity and use thereof” (Bristol-Myers Squibb Company, priority 2006, dated 2011).

Each structure is given as a SMILES string. Like-named read-outs stand apart in the source and are kept apart here.

A word on the EC50: it is the concentration that produces a half-maximal response. In the case of `CC(C)(C(=O)Nc1nncs1)[C@H]1c2ccccc2Oc2nc(-c3ccc(C(=O)N4CCC(F)(F)C4)cc3)ccc21` [Example 314], under setting [1], the Emax was found to be 69.8%. For the same compound, under setting [2], the EC50 turned out to be 18 nM.
The corresponding values for `CC(C)(C(=O)Nc1nncs1)[C@H]1c2ccccc2Oc2nc(-c3ccc(C(=O)N4CC(O)C4)cc3)ccc21` [Example 315] are 40.9% and 750 nM.
In the case of `CC(C)(C(=O)Nc1nncs1)[C@H]1c2ccccc2Oc2nc(-c3ccc(C(=O)N4CCCC4C#N)cc3)ccc21` (stereo partly shown) [Example 316], the Emax under setting [1] amounted to 35.9%. Besides, the EC50 under setting [2] was determined as 60.9 nM.
Turning to `CC(C)C1CCCN1C(=O)c1ccc(-c2ccc3c(n2)Oc2ccccc2[C@@H]3C(C)(C)C(=O)Nc2nncs2)cc1` (stereo partly shown) [Example 318], the Emax under setting [1] worked out at 27.6%. This compound also came in with an EC50 under setting [2] of 63.1 nM.
As for `CC(=O)N1CCN(C(=O)c2ccc(-c3ccc4c(n3)Oc3ccccc3[C@@H]4C(C)(C)C(=O)Nc3nncs3)cc2F)CC1` [Example 324], the Emax under setting [1] turned out to be 54.9%. Further, it took 431 nM to reach a half-maximal effect under setting [2] (EC50).
For `COC[C@H]1CCCN1C(=O)c1ccc(-c2ccc3c(n2)Oc2ccccc2[C@@H]3C(C)(C)C(=O)Nc2nncs2)cc1F` [Example 325], in that order: 56.1% and 90.2 nM.
Take `CC(C)(C(=O)Nc1nncs1)[C@H]1c2ccccc2Oc2nc(-c3ccc(C(=O)N4CCOCC4)c(F)c3)ccc21` [Example 327]: where the note is “Cellular Transrepression Assay”, the EC50 turned out to be 8.93 nM and the “AP-1 Max % inh (Cellular Transrepression Assay)” value (shortened to “AP-1 Max % inh”) came to 59.45%.
Consider `CC(C)(C(=O)Nc1nncs1)[C@H]1c2ccccc2Oc2nc(-c3ccc(C(=O)N4CCOCC4)c(Cl)c3)ccc21` [Example 328], for which, where the note is “Cellular Transrepression Assay”, the EC50 is 18.6 nM and the “AP-1 Max % inh” value amounted to 66.06%.
For `CC(C)N(C)C(=O)c1ccc(-c2ccc3c(n2)Oc2ccccc2[C@@H]3C(C)(C)C(=O)Nc2nncs2)cc1F` [Example 329], in that order: 583 nM and 40.81%.
With `COC[C@H]1CCCN1C(=O)c1ccc(-c2ccc3c(n2)Oc2ccccc2[C@@H]3C(C)(C)C(=O)Nc2nncs2)cc1Cl` [Example 330], the Emax under setting [1] came to 60.6%. Under setting [2], this compound displayed an EC50 of 21.9 nM.
For the compound `CC(C)(C(=O)Nc1nncs1)[C@H]1c2ccccc2Oc2nc(-c3ccc(C(=O)N4CCC[C@@H]4CO)cc3)ccc21` [Example 331], the Emax under setting [1] was found to be 36.3%. This compound had an EC50 under setting [2] of 33.7 nM.
Turning to `CC(C)(C(=O)Nc1nncs1)[C@H]1c2ccccc2Oc2nc(-c3ccc(C(=O)N4CCCC4)c(F)c3)ccc21` [Example 333], for the setting “Cellular Transrepression Assay”, the EC50 is 24.7 nM and the “AP-1 Max % inh” value worked out at 52.71%.
As for `CC(C)(C(=O)Nc1nncs1)[C@H]1c2ccccc2Oc2nc(-c3ccc(C(=O)N4CCC(F)(F)CC4)c(F)c3)ccc21` [Example 334], the Emax under setting [1] is 36.2%. Also, under setting [2], the concentration for a half-maximal effect (EC50) was determined as 3.36 nM.
For `CC(C)(C(=O)Nc1nncs1)[C@H]1c2ccccc2Oc2nc(-c3ccc(C(=O)N4CCC(F)(F)C4)c(F)c3)ccc21` [Example 335], in that order: 56% and 37.9 nM.
For the compound `CCN(C)C(=O)c1ccc(-c2ccc3c(n2)Oc2ccccc2[C@@H]3C(C)(C)C(=O)Nc2nncs2)cc1F` [Example 336], for the setting “Cellular Transrepression Assay”, a half-maximal response (EC50) required 20.4 nM and the “AP-1 Max % inh” value turned out to be 55.80%.
Turning to `CC(C)(C(=O)Nc1nncs1)[C@H]1c2ccccc2Oc2nc(-c3ccc(C(=O)N4CC(F)(F)C(F)(F)C4)c(F)c3)ccc21` [Example 337], under setting [1], the Emax worked out at 51.5%. In addition, under setting [2], it took 103 nM to reach a half-maximal effect (EC50).
The corresponding values for `CC(C)(C(=O)Nc1nncs1)[C@H]1c2ccccc2Oc2nc(-c3ccc(C(=O)N4CCC(F)(F)CC4)c(Cl)c3)ccc21` [Example 339] are 38.4% and 185 nM.
The corresponding values for `CC(C)(C(=O)Nc1nncs1)[C@H]1c2ccccc2Oc2nc(-c3ccc(C(=O)N4CCC(F)(F)C4)c(Cl)c3)ccc21` [Example 340] are 67.6% and 54.8 nM.
`CC(C)(C(=O)Nc1nncs1)[C@H]1c2ccccc2Oc2nc(-c3ccc(C(=O)N4CCCC4)c(Cl)c3)ccc21` [Example 341]: under “Cellular Transrepression Assay”, the 50% effective concentration (EC50) is 14.8 nM and the “AP-1 Max % inh” value is 50.27%.
Regarding `CCCN(C)C(=O)c1ccc(-c2ccc3c(n2)Oc2ccccc2[C@@H]3C(C)(C)C(=O)Nc2nncs2)cc1F` [Example 343], for the setting “Cellular Transrepression Assay”, a half-maximal effect (EC50) was put at 18.4 nM and the “AP-1 Max % inh” value was determined as 29.68%.
Regarding `CC(C)(C(=O)Nc1nncs1)[C@H]1c2ccccc2Oc2nc(-c3ccc(C(=O)N4CCC[C@@H]4CO)c(F)c3)ccc21` [Example 344], the Emax under setting [1] was determined as 44.5%. This compound also gave a concentration giving a half-maximal response (EC50) under setting [2] of 39.6 nM.
In the case of `CCN(C)C(=O)c1ccc(-c2ccc3c(n2)Oc2ccccc2[C@@H]3C(C)(C)C(=O)Nc2nncs2)cc1Cl` [Example 345], for the setting “Cellular Transrepression Assay”, the EC50 was 124 nM and the “AP-1 Max % inh” value is 54.25%.
For `CNC(=O)c1ccc(-c2ccc3c(n2)Oc2ccccc2[C@@H]3C(C)(C)C(=O)Nc2nncs2)cc1` [Example 348], the Emax under setting [1] stood at 34.4%. Further, the response under setting [2] was half-maximal at 300 nM (EC50).
For `CC(C)(C(=O)Nc1nncs1)[C@H]1c2ccccc2Oc2nc(-c3ccc(C(=O)NC4CC4)cc3)ccc21` [Example 350], in that order: 45.1% and 520 nM.
`Cc1csc(NC(=O)C(C)(C)C2c3ccccc3Oc3nc(-c4ccc(C(=O)N(C)C)cc4)ccc32)n1` (stereo not shown) [Example 363]: where the note is “Cellular Transrepression Assay”, the EC50 is 247 nM and the “AP-1 Max % inh” value was 47.74%.
With `Cc1cnc(NC(=O)C(C)(C)C2c3ccccc3Oc3nc(-c4ccc(C(=O)N(C)C)cc4)ccc32)s1` (stereo not shown) [Example 364], under “Cellular Transrepression Assay”, the concentration for a half-maximal effect (EC50) worked out at 244 nM and the “AP-1 Max % inh” value was 58.90%.
Regarding `CC(C)(C(=O)Nc1nncs1)[C@H]1c2ccccc2Oc2cc(OC(=O)NCc3ccccc3)ccc21` [Example 369, (s)-9-(1-(1,3,4-thiadiazole-2ylamino)-2-methyl-1-oxopropan-2-yl)-9H-xanthen-3-yl benzylcarbamate], the Emax under setting [1] was 55.5%. The response under setting [2] was half-maximal at 33 nM (EC50).
With `CCCCNC(=O)Oc1ccc2c(c1)Oc1ccccc1[C@@H]2C(C)(C)C(=O)Nc1nncs1` [Example 370], the Emax under setting [1] was found to be 57.6%. The same compound had an EC50 under setting [2] of 34.2 nM.
As for `CCNC(=O)Oc1ccc2c(c1)Oc1ccccc1[C@@H]2C(C)(C)C(=O)Nc1nncs1` [Example 371], the Emax under setting [1] is 48.7%. The same compound registered an EC50 under setting [2] of 22.3 nM.
For `CC(C)(C(=O)Nc1nncs1)[C@H]1c2ccccc2Oc2cc(OC(=O)NCc3ccco3)ccc21` [Example 372], in that order: 52.4% and 28.3 nM.
Consider `CC(C)(C(=O)Nc1nncs1)C1c2ccccc2Oc2cc(OC(=O)NC3CCCCC3)ccc21` (stereo not shown) [Example 373], for which the 50% effective concentration (EC50) (Cellular Transrepression Assay) is 32.8 nM. Besides, the Emax under setting [1] turned out to be 45.6%.
Turning to `CCCCCCCCNC(=O)Oc1ccc2c(c1)Oc1ccccc1C2C(C)(C)C(=O)Nc1nncs1` (stereo not shown) [Example 374], under setting [1], the Emax amounted to 50.9%. Moreover, under setting [2], the concentration for a half-maximal effect (EC50) stood at 30.9 nM.
In the case of `CC(C)(C(=O)Nc1nncs1)C1c2ccccc2Oc2cc(OC(=O)NCCc3ccccc3)ccc21` (stereo not shown) [Example 375], for the setting “Cellular Transrepression Assay”, the midpoint of the response, the EC50, lay at 82.8 nM and the “AP-1 Max % inh” value is given as 51.24%.
For `CC(C)(C(=O)Nc1nncs1)C1c2ccccc2Oc2cc(OC(=O)NCCc3cccs3)ccc21` (stereo not shown) [Example 376], in that order: 34.4 nM and 45.09%.
For `CC(C)(C(=O)Nc1nncs1)C1c2ccccc2Oc2cc(OC(=O)NCc3ccc(F)cc3)ccc21` (stereo not shown) [Example 377], in that order: 32.7 nM and 49.10%.
`CC(C)(C(=O)Nc1nncs1)C1c2ccccc2Oc2cc(OC(=O)NCc3ccc(Cl)c(Cl)c3)ccc21` (stereo not shown) [Example 379]: for the setting “Cellular Transrepression Assay”, the EC50 was found to be 74 nM and the “AP-1 Max % inh” value is on record as 51.21%.
With `CC(C)(C(=O)Nc1nncs1)C1c2ccccc2Oc2cc(OC(=O)NCCCc3ccccc3)ccc21` (stereo not shown) [Example 380], under “Cellular Transrepression Assay”, the concentration for a half-maximal effect (EC50) amounted to 101 nM and the “AP-1 Max % inh” value amounted to 53.58%.
On to `CC(C)(C(=O)Nc1nncs1)C1c2ccccc2Oc2cc(OC(=O)NCCc3ccc(F)cc3)ccc21` (stereo not shown) [Example 381], for which, where the note is “Cellular Transrepression Assay”, it took 45.2 nM to reach a half-maximal effect (EC50) and the “AP-1 Max % inh” value is 52.00%.
As to `CC(C)(C)NC(=O)Oc1ccc2c(c1)Oc1ccccc1C2C(C)(C)C(=O)Nc1nncs1` (stereo not shown) [Example 382], the Emax under setting [1] worked out at 47.2%. Under setting [2], this compound came in with an EC50 of 206 nM.
In the case of `CCC(C)NC(=O)Oc1ccc2c(c1)Oc1ccccc1C2C(C)(C)C(=O)Nc1nncs1` (stereo not shown) [Example 383], under “Cellular Transrepression Assay”, the EC50 is 46.3 nM and the “AP-1 Max % inh” value stood at 41.78%.
Regarding `COc1ccc(CCNC(=O)Oc2ccc3c(c2)Oc2ccccc2C3C(C)(C)C(=O)Nc2nncs2)cc1` (stereo not shown) [Example 384], under “Cellular Transrepression Assay”, a half-maximal effect (EC50) was put at 61.9 nM and the “AP-1 Max % inh” value was 42.30%.
For `CC(C)(C(=O)Nc1nncs1)C1c2ccccc2Oc2cc(OC(=O)NC3CCCCC3)ccc21` (stereo not shown) [Example 385], in that order: 96.5 nM and 28.99%.
As for `CNC(=O)Oc1ccc2c(c1)Oc1ccccc1C2C(C)(C)C(=O)Nc1nncs1` (stereo not shown) [Example 386], the Emax under setting [1] came out at 34.3%. Besides, the EC50 (Homo sapiens, A549, read-out: AP-1 EC50, nM (Cellular Transrepression Assay)) stood at 89 nM.
For `CCNC(=O)Oc1ccc2c(c1)Oc1ccccc1C2C(C)(C)C(=O)Nc1nncs1` (stereo not shown) [Example 387], under setting [1], the Emax was 52.5%. The compound further gave an EC50 under setting [2] of 82 nM.
The corresponding values for `CCCCNC(=O)Oc1ccc2c(c1)Oc1ccccc1C2C(C)(C)C(=O)Nc1nncs1` (stereo not shown) [Example 388] are 57.6% and 34.2 nM.
For the compound `CC(C)(C(=O)Nc1nncs1)C1c2ccccc2Oc2cc(OC(=O)NCc3ccccc3)ccc21` (stereo not shown) [Example 389], for the setting “Cellular Transrepression Assay”, the EC50 was 50.5 nM and the “AP-1 Max % inh” value is on record as 55.20%.
For the compound `COc1ccc(NC(=O)Oc2ccc3c(c2)Oc2ccccc2C3C(C)(C)C(=O)Nc2nncs2)cc1` (stereo not shown) [Example 390], for the setting “Cellular Transrepression Assay”, the EC50 amounted to 42.8 nM and the “AP-1 Max % inh” value amounted to 56.63%.
